Measurements published in PubChem BioAssay AID252 (DTP/NCI, 2004).
Values joined by “and” are separate entries in the source; they are usually repeats but may differ in a detail not shown here. Identical values can stand only once. Toxic doses and inconclusive results are not listed. Rule for the calls: active = survival T/C of 150% or more; inactive = T/C below 125% in these data.

Test system: BDF1 mice, intracerebral L1210 leukemia, survival T/C
Assay: NCI In Vivo Anticancer Drug Screen. Data for tumor model L1210 Leukemia (intracerebral) in B6D2F1 (BDF1) mice
Conditions: higher = longer survival
Outline: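 Mice carrying transplanted tumour were dosed with compound; survival was recorded and expressed as treated-group value (T) divided by vehicle-control value (C).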

Measured: T/C

CC1CCC(NC(=O)N(CCCl)N=O)CC1 (stereo not given)
active: endpoint: mean survival time, dose: 5.0 mg/kg/injection, schedule: Q01DX009 (ip), vehicle: saline 161 % of control | endpoint: mean survival time, dose: 8.0 mg/kg/injection, schedule: Q01DX009 (ip), vehicle: other 183 % of control | endpoint: mean survival time, dose: 10.0 mg/kg/injection, schedule: Q01DX009 (ip), vehicle: saline 151 % of control | endpoint: mean survival time, dose: 12.5 mg/kg/injection, schedule: Q01DX009 (ip), vehicle: Klucel (hydroxypropylcellulose) (HPC) 161 % of control | endpoint: mean survival time, dose: 16.0 mg/kg/injection, schedule: Q01DX001 (ip), vehicle: saline 153 % of control | endpoint: mean survival time, dose: 20.0 mg/kg/injection, schedule: Q01DX001 (ip), vehicle: other 188 % of control | endpoint: mean survival time, dose: 24.0 mg/kg/injection, schedule: Q01DX001 (ip), vehicle: other 175 % of control and 185 % of control | endpoint: mean survival time, dose: 30.0 mg/kg/injection, schedule: Q01DX001 (ip), vehicle: other 187 % of control and 198 % of control | endpoint: mean survival time, dose: 32.0 mg/kg/injection, schedule: Q01DX001 (ip), vehicle: clinical formulation 160 % of control | endpoint: mean survival time, dose: 36.0 mg/kg/injection, schedule: Q01DX001 (oral), vehicle: other 238 % of control and 243 % of control and 292 % of control | endpoint: mean survival time, dose: 40.0 mg/kg/injection, schedule: Q01DX001 (ip), vehicle: other 280 % of control | endpoint: mean survival time, dose: 45.0 mg/kg/injection, schedule: Q01DX001 (ip), vehicle: other 225 % of control and 251 % of control | endpoint: mean survival time, dose: 45.0 mg/kg/injection, schedule: Q01DX001 (oral), vehicle: other 306 % of control and 362 % of control | endpoint: mean survival time, dose: 54.0 mg/kg/injection, schedule: Q01DX001 (oral), vehicle: other 189 % of control and 248 % of control and 357 % of control | endpoint: mean survival time, dose: 67.0 mg/kg/injection, schedule: Q01DX001 (ip), vehicle: other 168 % of control | endpoint: mean survival time, dose: 72.0 mg/kg/injection, schedule: Q01DX001 (ip), vehicle: other 209 % of control and 306 % of control | endpoint: median survival time, dose: 16.0 mg/kg/injection, schedule: Q01DX001 (ip), vehicle: saline 178 % of control | endpoint: median survival time, dose: 32.0 mg/kg/injection, schedule: Q01DX001 (ip), vehicle: clinical formulation 175 % of control | endpoint: median survival time, dose: 32.0 mg/kg/injection, schedule: Q01DX001 (ip), vehicle: saline 159 % of control | endpoint: median survival time, dose: 64.0 mg/kg/injection, schedule: Q01DX001 (oral), vehicle: clinical formulation 150 % of control
inactive: endpoint: mean survival time, dose: 2.0 mg/kg/injection, schedule: Q01DX001 (ip), vehicle: clinical formulation 100 % of control | endpoint: mean survival time, dose: 2.0 mg/kg/injection, schedule: Q01DX009 (ip), vehicle: other 117 % of control | endpoint: mean survival time, dose: 3.13 mg/kg/injection, schedule: Q01DX009 (ip), vehicle: Klucel (hydroxypropylcellulose) (HPC) 112 % of control | endpoint: mean survival time, dose: 4.0 mg/kg/injection, schedule: Q01DX001 (ip), vehicle: clinical formulation 105 % of control | endpoint: mean survival time, dose: 4.0 mg/kg/injection, schedule: Q01DX001 (ip), vehicle: saline 103 % of control | endpoint: mean survival time, dose: 4.3 mg/kg/injection, schedule: Q01DX001 (ip), vehicle: other 104 % of control and 107 % of control | endpoint: mean survival time, dose: 5.0 mg/kg/injection, schedule: Q01DX001 (ip), vehicle: other 115 % of control | endpoint: mean survival time, dose: 5.4 mg/kg/injection, schedule: Q01DX001 (oral), vehicle: other 110 % of control | endpoint: mean survival time, dose: 8.0 mg/kg/injection, schedule: Q01DX001 (ip), vehicle: Klucel (hydroxypropylcellulose) (HPC) 112 % of control | endpoint: mean survival time, dose: 8.0 mg/kg/injection, schedule: Q01DX001 (ip), vehicle: clinical formulation 115 % of control | endpoint: mean survival time, dose: 8.0 mg/kg/injection, schedule: Q01DX001 (ip), vehicle: saline 118 % of control | endpoint: mean survival time, dose: 9.0 mg/kg/injection, schedule: Q01DX001 (ip), vehicle: other 110 % of control and 112 % of control | endpoint: mean survival time, dose: 16.0 mg/kg/injection, schedule: Q01DX009 (ip), vehicle: other 113 % of control | endpoint: mean survival time, dose: 20.0 mg/kg/injection, schedule: Q01DX009 (ip), vehicle: saline 98 % of control | endpoint: mean survival time, dose: 25.0 mg/kg/injection, schedule: Q01DX009 (ip), vehicle: Klucel (hydroxypropylcellulose) (HPC) 109 % of control | endpoint: mean survival time, dose: 32.0 mg/kg/injection, schedule: Q01DX001 (oral), vehicle: clinical formulation 102 % of control | endpoint: mean survival time, dose: 90.0 mg/kg/injection, schedule: Q01DX001 (oral), vehicle: other 91 % of control | endpoint: mean survival time, dose: 91.0 mg/kg/injection, schedule: Q01DX001 (oral), vehicle: other 114 % of control | endpoint: mean survival time, dose: 128.0 mg/kg/injection, schedule: Q01DX001 (ip), vehicle: Klucel (hydroxypropylcellulose) (HPC) 109 % of control | endpoint: mean survival time, dose: 128.0 mg/kg/injection, schedule: Q01DX001 (ip), vehicle: clinical formulation 103 % of control | endpoint: mean survival time, dose: 128.0 mg/kg/injection, schedule: Q01DX001 (ip), vehicle: saline 103 % of control | endpoint: mean survival time, dose: 256.0 mg/kg/injection, schedule: Q01DX001 (ip), vehicle: Klucel (hydroxypropylcellulose) (HPC) 111 % of control | endpoint: mean survival time, dose: 256.0 mg/kg/injection, schedule: Q01DX001 (oral), vehicle: clinical formulation 112 % of control | endpoint: median survival time, dose: 2.0 mg/kg/injection, schedule: Q01DX001 (ip), vehicle: clinical formulation 106 % of control | endpoint: median survival time, dose: 2.0 mg/kg/injection, schedule: Q01DX001 (ip), vehicle: saline 106 % of control | endpoint: median survival time, dose: 4.0 mg/kg/injection, schedule: Q01DX001 (ip), vehicle: clinical formulation 113 % of control | endpoint: median survival time, dose: 4.0 mg/kg/injection, schedule: Q01DX001 (ip), vehicle: saline 115 % of control | endpoint: median survival time, dose: 8.0 mg/kg/injection, schedule: Q01DX001 (ip), vehicle: clinical formulation 122 % of control | endpoint: median survival time, dose: 32.0 mg/kg/injection, schedule: Q01DX001 (oral), vehicle: clinical formulation 108 % of control | endpoint: median survival time, dose: 128.0 mg/kg/injection, schedule: Q01DX001 (ip), vehicle: clinical formulation 110 % of control | endpoint: median survival time, dose: 128.0 mg/kg/injection, schedule: Q01DX001 (ip), vehicle: saline 117 % of control | endpoint: median survival time, dose: 256.0 mg/kg/injection, schedule: Q01DX001 (ip), vehicle: clinical formulation 103 % of control | endpoint: median survival time, dose: 256.0 mg/kg/injection, schedule: Q01DX001 (ip), vehicle: saline 102 % of control | endpoint: median survival time, dose: 256.0 mg/kg/injection, schedule: Q01DX001 (oral), vehicle: clinical formulation 118 % of control | endpoint: median survival time, dose: 512.0 mg/kg/injection, schedule: Q01DX001 (oral), vehicle: clinical formulation 98 % of control | endpoint: median survival time, dose: 1024.0 mg/kg/injection, schedule: Q01DX001 (oral), vehicle: clinical formulation 83 % of control

CCCCCCCCSc1ncnc2c1ncn2CC
inactive: endpoint: mean survival time, dose: 62.0 mg/kg/injection, schedule: Q01DX015 (ip), vehicle: carboxymethylcellulose (CMC) 97 % of control | endpoint: mean survival time, dose: 125.0 mg/kg/injection, schedule: Q01DX015 (ip), vehicle: carboxymethylcellulose (CMC) 103 % of control | endpoint: mean survival time, dose: 250.0 mg/kg/injection, schedule: Q01DX015 (ip), vehicle: carboxymethylcellulose (CMC) 116 % of control | endpoint: mean survival time, dose: 500.0 mg/kg/injection, schedule: Q01DX015 (ip), vehicle: carboxymethylcellulose (CMC) 94 % of control

COc1cccc2c1C(=O)c1c(O)c3c(c(O)c1C2=O)C[C@@](O)(C(=O)CO)C[C@@H]3OC1CC(N)C(O)C(C)O1 (stereo not given in full)
inactive: endpoint: mean survival time, dose: 0.05 mg/kg/injection, schedule: Q03HX024 (ip), vehicle: saline 106 % of control | endpoint: mean survival time, dose: 0.1 mg/kg/injection, schedule: Q03HX024 (ip), vehicle: saline 103 % of control | endpoint: mean survival time, dose: 0.2 mg/kg/injection, schedule: Q03HX024 (ip), vehicle: saline 100 % of control | endpoint: mean survival time, dose: 0.4 mg/kg/injection, schedule: Q03HX024 (ip), vehicle: saline 102 % of control | endpoint: mean survival time, dose: 0.5 mg/kg/injection, schedule: Q01DX005 (ip), vehicle: saline 104 % of control | endpoint: mean survival time, dose: 0.5 mg/kg/injection, schedule: Q01DX009 (ip), vehicle: saline 101 % of control | endpoint: mean survival time, dose: 0.5 mg/kg/injection, schedule: Q04DX003 (ip), vehicle: saline 105 % of control | endpoint: mean survival time, dose: 0.8 mg/kg/injection, schedule: Q03HX024 (ip), vehicle: saline 101 % of control | endpoint: mean survival time, dose: 1.0 mg/kg/injection, schedule: Q01DX005 (ip), vehicle: saline 104 % of control | endpoint: mean survival time, dose: 1.0 mg/kg/injection, schedule: Q01DX009 (ip), vehicle: saline 102 % of control | endpoint: mean survival time, dose: 1.0 mg/kg/injection, schedule: Q04DX003 (ip), vehicle: saline 102 % of control | endpoint: mean survival time, dose: 2.0 mg/kg/injection, schedule: Q01DX005 (ip), vehicle: saline 107 % of control | endpoint: mean survival time, dose: 2.0 mg/kg/injection, schedule: Q01DX009 (ip), vehicle: saline 101 % of control | endpoint: mean survival time, dose: 2.0 mg/kg/injection, schedule: Q04DX003 (ip), vehicle: saline 101 % of control | endpoint: mean survival time, dose: 4.0 mg/kg/injection, schedule: Q01DX005 (ip), vehicle: saline 106 % of control | endpoint: mean survival time, dose: 4.0 mg/kg/injection, schedule: Q04DX003 (ip), vehicle: saline 108 % of control | endpoint: mean survival time, dose: 8.0 mg/kg/injection, schedule: Q04DX003 (ip), vehicle: saline 100 % of control

COC12C(COC(N)=O)C3=C(C(=O)C(C)=C(N)C3=O)N1CC1C2N1C (stereo not given)
inactive: endpoint: mean survival time, dose: 11.0 mg/kg/injection, schedule: Q01DX001 (ip), vehicle: carboxymethylcellulose (CMC) 92 % of control | endpoint: mean survival time, dose: 17.0 mg/kg/injection, schedule: Q01DX001 (ip), vehicle: carboxymethylcellulose (CMC) 98 % of control | endpoint: mean survival time, dose: 26.0 mg/kg/injection, schedule: Q01DX001 (ip), vehicle: carboxymethylcellulose (CMC) 97 % of control
